We go through 3 compounds from ChEMBL document CHEMBL1152560, “Substituted 2-arylbenzothiazoles as kinase inhibitors: hit-to-lead optimization” (Bioorg Med Chem, 2009).

Assay [1] has as its target T1, Testis-specific serine/threonine-protein kinase 2 (Homo sapiens) (UniProt Q96PF2).
T1 sequence (whole entry): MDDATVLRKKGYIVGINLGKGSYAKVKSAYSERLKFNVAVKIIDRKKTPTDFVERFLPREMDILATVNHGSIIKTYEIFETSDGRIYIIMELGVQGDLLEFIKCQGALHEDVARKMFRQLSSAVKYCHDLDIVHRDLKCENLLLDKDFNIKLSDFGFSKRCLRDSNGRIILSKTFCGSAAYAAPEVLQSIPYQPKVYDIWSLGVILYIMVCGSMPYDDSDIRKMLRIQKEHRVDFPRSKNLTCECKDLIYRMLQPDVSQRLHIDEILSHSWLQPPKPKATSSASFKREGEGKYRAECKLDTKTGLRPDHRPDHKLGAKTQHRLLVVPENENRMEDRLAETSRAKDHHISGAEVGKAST
The assay can be described thus: Residual activity of TSK2 at 1 uM by microplate scintillation counting.

For assay [2], the target named is Cyclin-dependent kinase 2/cyclin A (Homo sapiens) (UniProt P24941+P20248+P78396). As to the kind of experiment: Residual activity of CDK2/Cyclin A at 1 uM by microplate scintillation counting. The assay is classed as protein-complex assay.
Assay [3] has as its target Cyclin-dependent kinase 5/CDK5 activator 1 (Homo sapiens) (UniProt Q00535+Q15078). The assay can be described thus: Residual activity of CDK5/p25NCK at 1 uM by microplate scintillation counting. The assay is classed as protein-complex assay.
Assay [4] has as its target Serine/threonine-protein kinase Nek7 (Homo sapiens) (UniProt Q8TDX7). As to the kind of experiment: Residual activity of NEK7 at 1 uM by microplate scintillation counting.
Assay [5] concerns the target Activin receptor type-1-like (Homo sapiens) (UniProt P37023). As to the kind of experiment: Residual activity of ACV-RL1 at 0.1 uM by microplate scintillation counting.
The target in assay [6] is T2, Ephrin type-A receptor 1 (Homo sapiens) (UniProt P21709).
T2 sequence (whole entry): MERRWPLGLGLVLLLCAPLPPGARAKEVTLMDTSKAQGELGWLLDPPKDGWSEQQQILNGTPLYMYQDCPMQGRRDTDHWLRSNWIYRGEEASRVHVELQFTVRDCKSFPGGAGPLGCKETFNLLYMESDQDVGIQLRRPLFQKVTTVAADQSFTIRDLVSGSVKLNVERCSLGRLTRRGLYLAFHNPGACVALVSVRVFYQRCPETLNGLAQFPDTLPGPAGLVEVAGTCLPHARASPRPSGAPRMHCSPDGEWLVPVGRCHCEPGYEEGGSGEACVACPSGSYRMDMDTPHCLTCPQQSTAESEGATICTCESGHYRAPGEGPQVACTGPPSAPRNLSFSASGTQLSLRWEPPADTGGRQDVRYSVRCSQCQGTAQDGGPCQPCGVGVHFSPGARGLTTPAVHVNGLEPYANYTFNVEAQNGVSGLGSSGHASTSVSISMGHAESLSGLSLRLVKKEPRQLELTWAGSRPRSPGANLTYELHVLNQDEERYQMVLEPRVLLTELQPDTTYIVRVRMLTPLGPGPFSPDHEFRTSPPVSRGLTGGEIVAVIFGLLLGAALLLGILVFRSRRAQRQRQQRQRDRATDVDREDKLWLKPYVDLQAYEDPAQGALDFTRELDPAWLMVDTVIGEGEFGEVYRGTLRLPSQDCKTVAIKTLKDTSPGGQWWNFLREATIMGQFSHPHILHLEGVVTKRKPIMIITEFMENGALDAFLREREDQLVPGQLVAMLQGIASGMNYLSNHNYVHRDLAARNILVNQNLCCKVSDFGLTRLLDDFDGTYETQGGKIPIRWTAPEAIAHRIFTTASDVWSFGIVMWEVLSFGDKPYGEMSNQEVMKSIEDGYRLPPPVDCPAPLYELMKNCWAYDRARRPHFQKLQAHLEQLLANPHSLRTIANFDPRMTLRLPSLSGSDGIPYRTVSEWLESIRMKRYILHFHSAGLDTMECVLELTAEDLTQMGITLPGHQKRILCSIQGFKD
The assay can be described thus: Residual activity of EPHA1 at 0.1 uM by microplate scintillation counting.

Assay [7] addresses Serine/threonine-protein kinase Nek7 (Homo sapiens) (UniProt Q8TDX7). As to the kind of experiment: Residual activity of NEK7 at 0.1 uM by microplate scintillation counting.
Assay [8] addresses Activin receptor type-1-like (Homo sapiens) (UniProt P37023). As to the kind of experiment: Residual activity of ACV-RL1 at 10 uM by microplate scintillation counting.
Assay [9] addresses Insulin-like growth factor 1 receptor (Homo sapiens) (UniProt P08069). As to the kind of experiment: Residual activity of IGF1R at 0.1 uM by microplate scintillation counting.
Assay [10] deals with Ribosomal protein S6 kinase alpha-3 (Homo sapiens) (UniProt P51812). The assay can be described thus: Residual activity of RPS6KA3 at 1 uM by microplate scintillation counting.
Assay [11] addresses T3, Serine/threonine-protein kinase Sgk1 (Homo sapiens) (UniProt O00141).
T3 sequence (whole entry): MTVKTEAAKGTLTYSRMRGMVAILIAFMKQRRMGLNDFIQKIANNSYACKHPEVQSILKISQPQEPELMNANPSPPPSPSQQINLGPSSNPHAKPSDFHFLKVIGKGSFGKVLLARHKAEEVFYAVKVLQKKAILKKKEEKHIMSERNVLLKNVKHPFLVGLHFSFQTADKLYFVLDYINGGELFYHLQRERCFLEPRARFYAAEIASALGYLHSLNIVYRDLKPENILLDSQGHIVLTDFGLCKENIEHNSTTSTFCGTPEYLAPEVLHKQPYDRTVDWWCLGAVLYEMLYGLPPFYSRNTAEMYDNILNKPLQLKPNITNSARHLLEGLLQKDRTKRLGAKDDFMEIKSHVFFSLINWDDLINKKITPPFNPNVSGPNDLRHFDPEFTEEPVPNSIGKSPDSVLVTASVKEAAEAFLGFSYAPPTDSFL
As to the kind of experiment: Residual activity of SGK1 at 0.1 uM by microplate scintillation counting.

Sequence of Cyclin-dependent kinase 5/CDK5 activator 1 (Homo sapiens) (Q00535 whole entry): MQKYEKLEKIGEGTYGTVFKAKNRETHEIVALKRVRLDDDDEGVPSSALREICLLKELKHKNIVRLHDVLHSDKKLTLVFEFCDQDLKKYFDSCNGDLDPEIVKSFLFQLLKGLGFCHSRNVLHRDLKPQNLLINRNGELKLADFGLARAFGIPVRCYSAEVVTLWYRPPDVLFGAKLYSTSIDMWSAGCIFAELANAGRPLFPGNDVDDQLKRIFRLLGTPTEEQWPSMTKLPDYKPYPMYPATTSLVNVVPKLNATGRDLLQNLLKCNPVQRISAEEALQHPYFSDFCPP
Sequence of Cyclin-dependent kinase 5/CDK5 activator 1 (Homo sapiens) (Q15078 99-307 partner limits assumed): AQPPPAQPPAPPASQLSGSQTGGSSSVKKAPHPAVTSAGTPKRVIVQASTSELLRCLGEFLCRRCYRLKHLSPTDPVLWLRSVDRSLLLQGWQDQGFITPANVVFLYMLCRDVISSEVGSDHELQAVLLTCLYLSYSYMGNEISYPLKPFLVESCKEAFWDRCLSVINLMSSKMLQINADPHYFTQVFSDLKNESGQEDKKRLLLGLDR
Sequence of Serine/threonine-protein kinase Nek7 (Homo sapiens) (Q8TDX7 whole entry, looked up): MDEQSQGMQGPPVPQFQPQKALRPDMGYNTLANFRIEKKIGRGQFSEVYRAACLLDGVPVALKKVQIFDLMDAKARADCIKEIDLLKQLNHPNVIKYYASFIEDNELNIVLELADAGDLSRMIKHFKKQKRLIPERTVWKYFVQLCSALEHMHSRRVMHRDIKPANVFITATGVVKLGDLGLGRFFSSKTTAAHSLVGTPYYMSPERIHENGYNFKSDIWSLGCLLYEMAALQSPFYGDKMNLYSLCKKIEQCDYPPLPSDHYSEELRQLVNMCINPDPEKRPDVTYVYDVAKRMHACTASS
Sequence of Ribosomal protein S6 kinase alpha-3 (Homo sapiens) (P51812 whole entry): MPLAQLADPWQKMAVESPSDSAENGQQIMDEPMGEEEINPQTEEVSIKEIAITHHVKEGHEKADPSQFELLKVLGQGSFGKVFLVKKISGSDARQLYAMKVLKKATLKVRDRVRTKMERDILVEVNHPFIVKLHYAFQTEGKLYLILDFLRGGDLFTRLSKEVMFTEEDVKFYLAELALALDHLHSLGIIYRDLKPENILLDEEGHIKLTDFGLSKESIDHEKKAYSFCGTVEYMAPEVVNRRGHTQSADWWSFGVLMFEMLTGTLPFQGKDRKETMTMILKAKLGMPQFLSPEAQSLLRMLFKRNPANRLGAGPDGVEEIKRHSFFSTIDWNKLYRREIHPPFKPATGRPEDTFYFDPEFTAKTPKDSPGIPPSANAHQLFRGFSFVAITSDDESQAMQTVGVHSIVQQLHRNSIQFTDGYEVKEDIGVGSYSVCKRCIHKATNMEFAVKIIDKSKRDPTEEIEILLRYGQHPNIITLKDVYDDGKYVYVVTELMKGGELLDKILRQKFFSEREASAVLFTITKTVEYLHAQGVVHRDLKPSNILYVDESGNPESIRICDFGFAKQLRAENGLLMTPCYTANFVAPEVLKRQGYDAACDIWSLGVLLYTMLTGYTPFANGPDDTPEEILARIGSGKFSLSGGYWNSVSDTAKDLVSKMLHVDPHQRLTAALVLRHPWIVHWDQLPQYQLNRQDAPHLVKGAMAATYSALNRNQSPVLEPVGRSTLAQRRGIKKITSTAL
Sequence of Activin receptor type-1-like (Homo sapiens) (P37023 whole entry): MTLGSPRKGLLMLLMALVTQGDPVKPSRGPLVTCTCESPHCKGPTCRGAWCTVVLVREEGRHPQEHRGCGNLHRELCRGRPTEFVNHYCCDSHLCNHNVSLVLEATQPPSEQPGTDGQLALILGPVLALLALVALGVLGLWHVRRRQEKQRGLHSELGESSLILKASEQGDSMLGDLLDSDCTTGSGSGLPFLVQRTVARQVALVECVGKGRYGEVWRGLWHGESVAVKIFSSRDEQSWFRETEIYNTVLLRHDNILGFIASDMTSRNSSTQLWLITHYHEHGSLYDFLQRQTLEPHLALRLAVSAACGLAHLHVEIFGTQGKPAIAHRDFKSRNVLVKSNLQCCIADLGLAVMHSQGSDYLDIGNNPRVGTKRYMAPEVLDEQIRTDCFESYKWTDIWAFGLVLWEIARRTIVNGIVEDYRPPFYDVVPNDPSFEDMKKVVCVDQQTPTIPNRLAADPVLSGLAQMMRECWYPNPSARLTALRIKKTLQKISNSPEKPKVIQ
Sequence of Insulin-like growth factor 1 receptor (Homo sapiens) (P08069 31-736 limits assumed): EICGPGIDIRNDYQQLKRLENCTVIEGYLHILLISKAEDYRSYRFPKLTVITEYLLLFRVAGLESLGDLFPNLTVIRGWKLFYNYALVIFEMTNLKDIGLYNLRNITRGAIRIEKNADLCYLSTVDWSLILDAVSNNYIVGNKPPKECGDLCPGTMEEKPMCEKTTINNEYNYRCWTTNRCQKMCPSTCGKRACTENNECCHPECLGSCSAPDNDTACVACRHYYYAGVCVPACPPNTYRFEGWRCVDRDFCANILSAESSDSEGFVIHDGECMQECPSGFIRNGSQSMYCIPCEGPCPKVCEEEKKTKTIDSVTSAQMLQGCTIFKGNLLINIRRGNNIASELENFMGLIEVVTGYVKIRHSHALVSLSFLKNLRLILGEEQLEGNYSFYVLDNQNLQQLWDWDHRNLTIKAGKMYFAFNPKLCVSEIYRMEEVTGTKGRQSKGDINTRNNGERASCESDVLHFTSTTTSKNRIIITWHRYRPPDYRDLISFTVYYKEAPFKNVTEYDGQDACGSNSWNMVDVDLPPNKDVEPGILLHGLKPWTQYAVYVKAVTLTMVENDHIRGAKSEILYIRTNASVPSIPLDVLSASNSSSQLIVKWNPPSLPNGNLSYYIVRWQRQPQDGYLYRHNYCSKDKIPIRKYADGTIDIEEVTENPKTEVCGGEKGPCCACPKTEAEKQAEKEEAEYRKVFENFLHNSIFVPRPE
Sequence of Insulin-like growth factor 1 receptor (Homo sapiens) (P08069 741-1367 limits assumed): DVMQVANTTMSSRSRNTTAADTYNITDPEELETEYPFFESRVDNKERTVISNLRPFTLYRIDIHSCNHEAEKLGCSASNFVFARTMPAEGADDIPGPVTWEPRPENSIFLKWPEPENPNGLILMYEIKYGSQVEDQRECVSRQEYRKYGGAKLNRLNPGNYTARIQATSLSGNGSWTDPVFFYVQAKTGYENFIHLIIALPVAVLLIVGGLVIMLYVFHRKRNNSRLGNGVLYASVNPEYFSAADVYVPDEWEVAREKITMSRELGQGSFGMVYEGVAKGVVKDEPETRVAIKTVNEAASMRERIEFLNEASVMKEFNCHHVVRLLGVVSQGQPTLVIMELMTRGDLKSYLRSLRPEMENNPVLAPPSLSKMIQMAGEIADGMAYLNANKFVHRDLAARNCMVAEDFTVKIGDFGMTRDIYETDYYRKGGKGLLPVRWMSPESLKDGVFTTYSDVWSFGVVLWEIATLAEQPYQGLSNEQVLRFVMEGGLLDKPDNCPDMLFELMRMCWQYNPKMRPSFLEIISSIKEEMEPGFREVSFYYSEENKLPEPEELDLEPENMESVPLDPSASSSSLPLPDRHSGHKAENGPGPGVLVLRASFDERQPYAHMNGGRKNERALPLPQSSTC

Consider `COc1cc2c(Oc3ccc(-c4nc5ccccc5s4)cc3)ncnc2cc1OCCCN1CCN(C)CC1`, for which the residual activity was 92% in assay [1]; 96% in assay [2]; 82% in assay [3]; 95% in assay [4]; 91% in [5]; 112% in assay [6]. Also, the residual activity in assay [7] was 83%; in assay [8], 84%; in assay [9], 99%; in assay [10], 85%; in [11], 85%.
As for `COc1cc2c(Oc3ccc(-c4nc5ccccc5s4)cc3)ncnc2cc1OCCCN1CCCC1`, the residual activity is 108% in assay [1]; 96% in assay [2]; 87% in assay [3]; 104% in assay [4]; 96% in [5]; 102% in assay [6]. In addition, the residual activity in assay [7] is 95%; in [8], 87%; in [9], 114%; in assay [10] it was 93%; in assay [11] it was 96%.
Consider `COc1cc2c(Oc3ccc(-c4nc5ccccc5s4)cc3F)ncnc2cc1OCCCN1CCN(C)CC1`, for which the residual activity in assay [1] was 98%; in assay [2], 97%; in assay [3] it was 89%; in assay [4], 103%; in [5] it was 92%; in [6] it was 106%. The residual activity worked out at 97% in [7]; 91% in assay [8]; 113% in assay [9]; 95% in assay [10]; 98% in [11].
